Laboratory results taken from patent US20240131046A1, “ANTI-VIRAL AGENT” (NATIONAL UNIVERSITY CORPORATION HOKKAIDO UNIVERSITY, priority 2021, published 2024).
Like-named read-outs stand apart in the source and are kept apart here.

What was measured:
[1] = test system: HCoV-229E; assay: Cell-death suppression effect in coronavirus-infected cells (resazurin); conditions: for EC50: read-out: HCoV-229E EC50 (50% cell death inhibition concentration)
[2] = Cytotoxicity CC50 (Table 1); assay type: cell-based, human; conditions: human, MRC5 cells
Procedure: (§1) In the following tests, culture-cell strain MRC5 cells from the lungs of a human fetus or culture-cell strain Caco-2 cells from a human colon carcinoma were infected using the viruses. For both cell types, 2% FBS/MEM was used as a culture medium. The 2% FBS/MEM was prepared by adding 2% FBS (fetal bovine serum; made by Gibco) and L-glutamine (made by Wako) to MEM (Minimum Essential Medium; made by Nissui).
(§2) Moreover, from values of EC50 and CC50, SI (CC50/EC50) was calculated.

[3] = test system: HCoV-229E
[4] = test system: HCoV-OC43
[5] = test system: HCoV-OC43; assay: Cell-death suppression effect in coronavirus-infected cells (resazurin); conditions: for EC50: read-out: HCoV-0C43 EC50 (50% cell death inhibition concentration)
[6] = test system: YFV; conditions: non-patent literature 5; read-out: antiviral activity (EC50) against YFV; cited from earlier work
[7] = test system: MRC5 cells; assay: Cytotoxicity CC50 (Table 1); assay type: cell-based, human
Procedure: as §1, §2

[8] = test system: DENV4; assay: microbe, parasite or virus in culture; assay type: cell-based; conditions: Dengue virus, DENV4, 120 h; BHK-21 cells, five days, MTT
[9] = test system: JEV; assay: microbe, parasite or virus in culture; assay type: cell-based; conditions: Japanese encephalitis virus, 72 h; BHK-21 cells, three days, MTT
[10] = test system: SARS-CoV-2; assay: Viral-RNA replication suppression in infected Caco-2 cells (qRT-PCR); conditions: for EC50: Severe acute respiratory syndrome coronavirus 2, Caco-2, 48 h, read-out: SARS-CoV-2 EC50
[11] = test system: DENV1; assay: microbe, parasite or virus in culture; assay type: cell-based; conditions: Dengue virus, DENV1, 120 h; BHK-21 cells, five days, MTT
[12] = test system: WNV; assay: microbe, parasite or virus in culture; assay type: cell-based; conditions: West Nile virus, 72 h; BHK-21 cells, three days, MTT
[13] = test system: HCoV-229E and HCoV-OC43; assay: Library screening for suppression of cell death of cells infected by a human coronavirus; assay type: cell-based
Procedure: HCoV-229E (ATCC: VR-740) and HCoV-OC43 (ATCC: VR-1558) obtained from the ATCC were used as coronaviruses that routinely infect humans (human coronaviruses: HCoV).
as §1
HCoV-229E and HCoV-OC43 were used as the human coronavirus.

[14] = test system: DENV2; assay: microbe, parasite or virus in culture; assay type: cell-based; conditions: Dengue virus, DENV2, 96 h; BHK-21 cells, four days, MTT
[15] = test system: DENV3; assay: microbe, parasite or virus in culture; assay type: cell-based; conditions: Dengue virus, DENV3, 120 h; BHK-21 cells, five days, MTT
[16] = test system: ZIKV; assay: microbe, parasite or virus in culture; assay type: cell-based; conditions: Zika virus, 72 h; BHK-21 cells, three days, MTT
[17] = test system: Caco-2 cells; conditions: for cytotoxicity by microscopic observation: Caco-2 cells infected with SARS-CoV-2; for concentration at which mild cytotoxicity, not to an extent of cell extinction, was observed: human
[18] = test system: SARS-CoV-2; assay: Time-of-addition test in infected Caco-2 cells (viral RNA, TCID50 titration); assay type: cell-based; conditions: 1 μM, treatment timing Whole and Post-Entry
[19] = test system: YFV; assay: microbe, parasite or virus in culture; assay type: cell-based; conditions: Yellow fever virus, BHK-21, 72 h, read-out: EC50 YFV

SMILES | EC50 ([1]; Human coronavirus 229E, 72 h) [nM] | HCoV-229E SI (CC50/EC50) [3] | HCoV-0C43 SI (CC50/EC50) [4] | EC50 ([5]; Betacoronavirus 1, OC43, 72 h) [nM] | EC50 [8] [nM] | EC50 [9] [nM] | EC50 [10] [nM] | EC50 [11] [nM] | EC50 [12] [nM] | antiviral activity (suppressing cell death of infected cells) in library screening [13] | EC50 [14] [nM] | EC50 [15] [nM] | HCoV-229E SI (CC50/EC50) [1] | antiviral activity (suppressing cell death of infected cells) in library screening ([13]; HCoV-229E and HCoV-OC43) | cytotoxicity by microscopic observation [17] | CC50 [2] [nM] | concentration at which mild cytotoxicity, not to an extent of cell extinction, was observed [17] [nM] | other results
CCC(CC)COC(=O)[C@H](C)N[P@](=O)(OC[C@H]1O[C@@](C#N)(c2ccc3c(N)ncnn23)[C@H](O)[C@@H]1O)Oc1ccccc1 [GS-5734, remdesivir, reference compound] | 72 | >694.1 | >221.1 | 230 | – | – | – | – | – | – | – | – | – | – | – | – | – | CC50 ([2]; read-out: CC50): > 50000 nM
N#C[C@@]1(c2ccc3c(N)ncnn23)O[C@H](CO)[C@@H](O)[C@H]1O [GS-441524, reference compound] | – | – | – | – | – | – | – | – | – | – | – | – | – | – | – | – | – | EC50 ([1]; cultured three days, resazurin): 3100 nM; EC50 [6]: 11000 nM; CC50 [7]: > 50000 nM; EC50 ([5]; cultured three days, resazurin): 3700 nM
Nc1ncnc2c1c(/C=N\O)cn2[C@@H]1O[C@H](CO)[C@@H](O)[C@H]1O [HUP1069, 5-formyltubercidin oxime] | < 78 | >9.5 | 13 | 55 | > 16000 | < 130 | 200 | > 16000 | < 130 | had antiviral activity | < 125 | > 16000 | – | – | – | – | – | –
Nc1c2ccn([C@@H]3O[C@H](CO)[C@@H](O)[C@H]3O)c2nc[n+]1[O-] [HUP1077, tubercidin N-oxide] | 4000 | – | – | – | 2500 | 6900 | 3500 | 3200 | 10700 | – | – | 2300 | 6.1 | had antiviral activity | concerns regarding cytotoxicity were low | – | – | EC50 [16]: 6300 nM; HCoV-0C43 SI (CC50/EC50) [5]: 5.6
Nc1ncnc2c1c([N+](=O)[O-])cn2[C@@H]1O[C@H](CO)[C@@H](O)[C@H]1O [HUP1078, 5-nitrotubercidin] | 2000 | – | – | > 10000 | – | – | 100 | – | – | – | > 20000 | – | 0.17 | had antiviral activity | – | 330 | ≥ 123 | –
Nc1ncnc2c1c(CO)cn2[C@@H]1O[C@H](CO)[C@@H](O)[C@H]1O [HUP1108, 5-hydroxymethyltubercidin] | – | – | – | 350 | – | – | 570 | – | – | – | – | – | >117 | had antiviral activity | concerns regarding cytotoxicity were low | > 50000 | 10000 | concentration range in which virus proliferation was suppressed without cytotoxicity ([10]; Caco-2 cells): lower than 3.33 μM; relative viral-RNA amount ([18]; Caco-2 cells, 24 hours, FIG. 3): reduced; viral titer (TCID50) ([18]; supernatant titrated on VeroE6/TMPRSS2 cells, FIG. 4): reduced; HCoV-0C43 SI (CC50/EC50) [5]: >141
N#Cc1cn([C@@H]2O[C@H](CO)[C@@H](O)[C@H]2O)c2ncnc(N)c12 [HUP1109, 5-cyanotubercidin] | 2300 | 0.26 | – | > 10000 | – | – | 200 | – | – | had antiviral activity | > 20000 | – | – | – | strong cytotoxicity | 590 | – | –
Nc1ncnc2c1ccn2[C@@H]1O[C@H](CO)[C@@H](O)[C@H]1O [HUP1136, tubercidin] | < 78 | >8.5 | 5.9 | – | > 16000 | < 130 | 87 | > 16000 | 200 | had antiviral activity | – | < 125 | – | – | – | – | ≥ 1110 | EC50 [19]: 150 nM
